Measurements: the NIST ThermoML archive (doi:10.1021/acs.jced.7b00902)
Numbers after ± are expanded uncertainties.

Settings: Surface laser light scattering (SLLS); for viscosity: Liquid

O=C(C(F)(F)C(F)(F)F)C(F)(C(F)(F)F)C(F)(F)F [dodecafluoro-2-methylpentan-3-one]
Settings | surface tension liquid-gas [mN/m] | viscosity [mPa·s]
303.16 K | 10.09 ± 0.15 | 0.585 ± 0.026
313.12 K | 9.26 ± 0.14 | 0.4939 ± 0.023
313.18 K | 9.24 ± 0.14 | 0.5033 ± 0.023
323.15 K | 8.43 ± 0.13 | 0.4357 ± 0.021
333.12 K | 7.56 ± 0.12 | 0.3776 ± 0.019
343.15 K | 6.7 ± 0.1 | 0.329 ± 0.017
353.16 K | 5.84 ± 0.09 | 0.2907 ± 0.016
363.14 K | 4.99 ± 0.08 | 0.2569 ± 0.015
373.14 K | 4.19 ± 0.06 | 0.228 ± 0.014
383.13 K | 3.44 ± 0.05 | 0.1998 ± 0.013
393.15 K | 2.71 ± 0.04 | 0.1719 ± 0.012
403.17 K | 2.02 ± 0.03 | 0.1471 ± 0.011
413.18 K | 1.37 ± 0.02 | 0.1309 ± 0.011
423.15 K | 0.78 ± 0.01 | 0.104 ± 0.01
433.02 K | 0.27 ± 0.01 | 0.0768 ± 0.0095

FC(F)(F)/C=C/Cl [(E)-1-chloro-3,3,3-trifluoroprop-1-ene]
Settings | surface tension liquid-gas [mN/m] | viscosity [mPa·s]
303.14 K | 13.3 ± 0.2 | 0.2857 ± 0.016
313.15 K | 12.37 ± 0.19 | 0.2504 ± 0.015
323.19 K | 10.89 ± 0.16 | 0.2265 ± 0.014
333.18 K | 9.74 ± 0.15 | 0.2079 ± 0.013
343.16 K | 8.62 ± 0.13 | 0.1891 ± 0.013
353.19 K | 7.58 ± 0.11 | 0.1695 ± 0.012
363.15 K | 6.4 ± 0.1 | 0.1595 ± 0.011
373.14 K | 5.38 ± 0.08 | 0.1406 ± 0.011
373.17 K | 5.38 ± 0.08 | 0.1448 ± 0.011
383.15 K | 4.37 ± 0.07 | 0.1318 ± 0.011
393.17 K | 3.41 ± 0.05 | 0.1191 ± 0.01
403.15 K | 2.45 ± 0.04 | 0.1047 ± 0.01
